In test [1] the test system is KNBCCS6 E6/E7 immortalized keratinocytes. The test can be described thus: Organotypic skin reconstruction: epidermal invasion of KNBCCS6 E6/E7 keratinocytes into dermal equivalent of NBCCS6 fibroblasts (histology). To be noted: 10 mM inhibitor, 0.1% DMSO, added 24 hrs before raising at air-liquid interface; compared with FIG. 4A control (FIG. 4B, 4C). In kind it is cell-based, human. On the procedure:
Organotypic skin reconstruction using KNBCCS E6/E7 was performed using standard protocols as described in (Bernerd et al., 2001). In brief 10^6 NBCCS6 primary fibroblasts cultured in standard culture medium as described above were embeded in a bovine collagen I lattice. After contraction (48 hrs) lattices were fixed on platic using a collagen glue, KNBCCS6 were then seeded (50 000 cells per lattice) within a stainless ring, left for 6 days in immersion; the day 6) before emersion (day 7), mounts were treated with appropriate concentration of SHH:PTCH pathway inhibitor with a final a 0.1% DMSO concentration until the end of experiment. Control cultures were treated with 0.1% DMSO. After 7 days of emersion at air-liquid interface, cultures were harvested for subsequent analyses including histology and assessment of tacer/reporter gene activity. (FIG. 3 and FIG. 4)
FIGS. 4B, 4C show the same as FIG. 4A, except that organotypic skin cultures were grown 24 hrs before being raised at air-liquid interface in the presence ce of […] of GDC-0449 (B) or […] (SANT1) SHH/PTCH pathway inhibitors.

The test system of test [2] is SHH/PTCH signaling pathway. Briefly: Response of the immortalized keratinocyte cell line to SHH/PTCH pathway agonist and antagonists. In kind it is cell-based, human. The note with it: conclusion statement; no concentration given. As for the experimental part:
Purmorphamine (SMO agonist) and GDC-0449 (SMO antagonist) were diluted in DMSO at stock concentrations of 50 mM and 10 mM, respectively. To avoid side effects and toxicity, the final concentration of DMSO was fixed to 0.1% DMSO.
Theses cells can be expanded in a simple defined medium and they can grow easily due to immortalization. This tool is 3D organotypic culture system to evaluate the efficacy of anti-tumoral molecules specifically targeting inappropriate activation of the SHH/PTCH pathway occurring in BCC but also in numerous non BCC cancers including other cancer implicating inappropriate activation of the SHH/PTCH pathway. Assessment of inhibitor efficacy is applicable in the long term by skin regeration in vivo using animal vector including the mouse or the mini pig sytems.

Turning to `CS(=O)(=O)c1ccc(C(=O)Nc2ccc(Cl)c(-c3ccccn3)c2)c(Cl)c1` [GDC-0449], the “size and frequency of epidermal invasion” value in test [1] was “substantially decreased”. For the same compound, the “effect on SHH/PTCH signaling pathway in immortalized human keratinocyte cell line” value (“effect on SHH/PTCH signaling pathway” for short) in test [2] is “inhibition of the activation”.

Turning to `Cc1nn(-c2ccccc2)c(C)c1/C=N/N1CCN(Cc2ccccc2)CC1` [SANT1], the “size and frequency of epidermal invasion” value in test [1] was “substantially decreased”. Besides, the “effect on SHH/PTCH signaling pathway” value in test [2] was “inhibition of the activation”.

As to `c1ccc2c(Oc3nc(Nc4ccc(N5CCOCC5)cc4)c4ncn(C5CCCCC5)c4n3)cccc2c1` [purmorphamine, Purmorphamine], the “effect on SHH/PTCH signaling pathway” value in test [2] is listed as “activation”.
